Results published in PubChem BioAssay AID248 (DTP/NCI, 2004).
Values joined by “and” are separate entries in the source; they are usually repeats but may differ in a detail not shown here. Equal values may be shown once. Inconclusive results and toxic doses are left out. Cut-off read from the data, not from the text of the source: active = T/C of 150% or more; inactive = T/C below 125%.

Test system: L1210 leukemia ip in BDF1 mice, survival T/C
Assay: NCI In Vivo Anticancer Drug Screen. Data for tumor model L1210 Leukemia (intraperitoneal) in B6D2F1 (BDF1) mice
Settings: endpoint: mean survival time, higher = longer survival
Summary of the method: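 Tumor cells were implanted, animals were treated, and survival was followed. The result divides the treated measurement by the vehicle-control measurement.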

[1] = dose: 100.0 mg/kg/injection, schedule: Q04DX003 (ip), vehicle: saline with Tween-80
[2] = dose: 200.0 mg/kg/injection, schedule: Q04DX003 (ip), vehicle: saline with Tween-80
[3] = dose: 400.0 mg/kg/injection, schedule: Q04DX003 (ip), vehicle: saline with Tween-80
[4] = dose: 50.0 mg/kg/injection, schedule: Q01DX001 (ip), vehicle: carboxymethylcellulose (CMC)
[5] = dose: 100.0 mg/kg/injection, schedule: Q01DX001 (ip), vehicle: carboxymethylcellulose (CMC)
[6] = dose: 200.0 mg/kg/injection, schedule: Q01DX001 (ip), vehicle: carboxymethylcellulose (CMC)
[7] = dose: 100.0 mg/kg/injection, schedule: Q01DX009 (ip), vehicle: Klucel (hydroxypropylcellulose) (HPC)
[8] = dose: 200.0 mg/kg/injection, schedule: Q01DX009 (ip), vehicle: Klucel (hydroxypropylcellulose) (HPC)
[9] = dose: 400.0 mg/kg/injection, schedule: Q01DX009 (ip), vehicle: Klucel (hydroxypropylcellulose) (HPC)
[10] = dose: 100.0 mg/kg/injection, schedule: Q04DX003 (ip), vehicle: Klucel (hydroxypropylcellulose) (HPC)
[11] = dose: 200.0 mg/kg/injection, schedule: Q04DX003 (ip), vehicle: Klucel (hydroxypropylcellulose) (HPC)
[12] = dose: 400.0 mg/kg/injection, schedule: Q04DX003 (ip), vehicle: Klucel (hydroxypropylcellulose) (HPC)
[13] = dose: 100.0 mg/kg/injection, schedule: Q01DX009 (ip), vehicle: saline
[14] = dose: 100.0 mg/kg/injection, schedule: Q04DX003 (ip), vehicle: saline
[15] = dose: 200.0 mg/kg/injection, schedule: Q04DX003 (ip), vehicle: saline
[16] = dose: 400.0 mg/kg/injection, schedule: Q04DX003 (ip), vehicle: saline
[17] = dose: 100.0 mg/kg/injection, schedule: Q01DX001 (ip), vehicle: saline with Tween-80
[18] = dose: 200.0 mg/kg/injection, schedule: Q01DX001 (ip), vehicle: saline with Tween-80
[19] = dose: 400.0 mg/kg/injection, schedule: Q01DX001 (ip), vehicle: saline with Tween-80
[20] = dose: 200.0 mg/kg/injection, schedule: Q01DX009 (ip), vehicle: saline
[21] = dose: 400.0 mg/kg/injection, schedule: Q01DX009 (ip), vehicle: saline

Measured: T/C

OC1(c2ccccc2)c2ccccc2-c2ccccc21
inactive: dose: 100.0 mg/kg/injection, schedule: Q01DX009 (ip), vehicle: saline with Tween-80 101 % of control | [1] 98 % of control | dose: 200.0 mg/kg/injection, schedule: Q01DX009 (ip), vehicle: saline with Tween-80 106 % of control | [2] 93 % of control | dose: 400.0 mg/kg/injection, schedule: Q01DX009 (ip), vehicle: saline with Tween-80 106 % of control | [3] 95 % of control

COc1ccc(-n2c(=O)c(N=Nc3ccc(Br)cc3)c(O)n(-c3ccc(Cl)cc3)c2=S)cc1
inactive: dose: 37.5 mg/kg/injection, schedule: Q01DX001 (ip), vehicle: Klucel (hydroxypropylcellulose) (HPC) 102 % of control | dose: 75.0 mg/kg/injection, schedule: Q01DX001 (ip), vehicle: Klucel (hydroxypropylcellulose) (HPC) 101 % of control | dose: 150.0 mg/kg/injection, schedule: Q01DX001 (ip), vehicle: Klucel (hydroxypropylcellulose) (HPC) 104 % of control

COc1ccc(CN2CCCN(Cc3ccc(OC)cc3OC)C2c2cccc([N+](=O)[O-])c2O)c(OC)c1
inactive: [4] 104 % of control | [5] 98 % of control | [6] 110 % of control | dose: 400.0 mg/kg/injection, schedule: Q01DX001 (ip), vehicle: carboxymethylcellulose (CMC) 98 % of control

O=C(/C=C/c1ccccc1)Nc1ccc(Cl)cc1C(=O)c1ccccc1
inactive: [7] 102 % of control | [8] 97 % of control | [9] 94 % of control

COc1c(C)cc(Br)c2c1C(CCN(C)S(=O)(=O)Cc1ccccc1)CCC2 (stereo not given)
inactive: [7] 95 % of control | [10] 96 % of control | [8] 89 % of control | [11] 98 % of control | [9] 93 % of control | [12] 91 % of control

Cc1cc(O)c(C(C)C)cc1C1=NCC(C)S1 (stereo not given)
inactive: dose: 100.0 mg/kg/injection, schedule: Q01DX005 (ip), vehicle: Klucel (hydroxypropylcellulose) (HPC) 93 % of control | [7] 102 % of control | dose: 100.0 mg/kg/injection, schedule: Q04DX002 (ip), vehicle: Klucel (hydroxypropylcellulose) (HPC) 100 % of control | dose: 200.0 mg/kg/injection, schedule: Q01DX005 (ip), vehicle: Klucel (hydroxypropylcellulose) (HPC) 90 % of control | [8] 102 % of control | dose: 200.0 mg/kg/injection, schedule: Q04DX002 (ip), vehicle: Klucel (hydroxypropylcellulose) (HPC) 104 % of control | dose: 400.0 mg/kg/injection, schedule: Q01DX005 (ip), vehicle: Klucel (hydroxypropylcellulose) (HPC) 97 % of control | [9] 87 % of control | dose: 400.0 mg/kg/injection, schedule: Q04DX002 (ip), vehicle: Klucel (hydroxypropylcellulose) (HPC) 107 % of control

Cc1cc(=O)c2cc(Cc3ccc4[nH]c(C)cc(=O)c4c3)ccc2[nH]1
inactive: dose: 50.0 mg/kg/injection, schedule: Q01DX009 (ip), vehicle: saline 91 % of control | [13] 88 % of control | [14] 94 % of control | [15] 94 % of control | [16] 93 % of control

CSCc1ccc(N)cc1
inactive: [7] 105 % of control | [10] 103 % of control | [8] 112 % of control | [11] 92 % of control | [9] 101 % of control | [12] 98 % of control

Nc1ncnc(N)c1NC(=O)c1ccc(OCc2ccccc2)c(Br)c1
inactive: [17] 93 % of control | [18] 97 % of control | [19] 96 % of control

COc1ccc(OC(=O)Nc2ccc(F)cc2)cc1
inactive: [4] 97 % of control | dose: 50.0 mg/kg/injection, schedule: Q01DX009 (ip), vehicle: carboxymethylcellulose (CMC) 93 % of control and 90 % of control | dose: 50.0 mg/kg/injection, schedule: Q04DX002 (ip), vehicle: carboxymethylcellulose (CMC) 95 % of control and 106 % of control | dose: 50.0 mg/kg/injection, schedule: Q04DX003 (ip), vehicle: carboxymethylcellulose (CMC) 101 % of control | [5] 89 % of control | dose: 100.0 mg/kg/injection, schedule: Q01DX009 (ip), vehicle: carboxymethylcellulose (CMC) 93 % of control and 103 % of control | dose: 100.0 mg/kg/injection, schedule: Q04DX002 (ip), vehicle: carboxymethylcellulose (CMC) 101 % of control and 110 % of control | dose: 100.0 mg/kg/injection, schedule: Q04DX003 (ip), vehicle: carboxymethylcellulose (CMC) 101 % of control | [6] 89 % of control | dose: 200.0 mg/kg/injection, schedule: Q01DX009 (ip), vehicle: carboxymethylcellulose (CMC) 101 % of control and 104 % of control | dose: 200.0 mg/kg/injection, schedule: Q04DX002 (ip), vehicle: carboxymethylcellulose (CMC) 96 % of control and 106 % of control | dose: 200.0 mg/kg/injection, schedule: Q04DX003 (ip), vehicle: carboxymethylcellulose (CMC) 101 % of control

ICc1cc(CI)c(CI)cc1CI
inactive: [1] 92 % of control | [2] 91 % of control | [3] 91 % of control

CC(=O)OC1C=CCc2c(O)c3c(c(O)c21)C(=O)c1ccccc1C3=O (stereo not given)
inactive: [13] 91 % of control | [14] 90 % of control | [20] 109 % of control | [15] 88 % of control | [21] 103 % of control | [16] 91 % of control

O=C(O)c1ccc[nH]c1=O
inactive: [17] 97 % of control | [18] 95 % of control | [19] 98 % of control

CCc1cc(CC)c(CC)c(CC)c1
inactive: [13] 100 % of control | [14] 107 % of control | [20] 87 % of control | [15] 105 % of control | [21] 108 % of control | [16] 91 % of control

COc1ccc(C=Nc2ccc(Cl)cc2)cc1
inactive: [7] 96 % of control | [10] 102 % of control | [8] 97 % of control | [11] 104 % of control | [12] 100 % of control
